Laboratory results reported in patent US20260167656A1, “PHOSPHORAMIDATE COMPOUNDS AND USES THEREOF” (ALLORION THERAPEUTICS INC, priority 2022, published 2026).

How the values were obtained:
[1] = test system: non-small cell lung cancer cell line H460; assay: In vitro human cancer cell line cytotoxicity (proliferation) assay in H460, CellTiter-Glo, 72 hours; format: cell-based; settings: H460 cells, DMSO condition (no AKR1C3 inhibitor), read-out: CTG H460: Avg IC50 (nM) [Assay Condition: DMSO]
Method: Biological Example 1. In Vitro Human Cancer Cell Line Cytotoxicity Assay
IC50 values in nanomolar reported here were derived from in vitro proliferation assay data in non-small cell lung cancer cell line H460.
(§1) Specifically, exponentially growing cells were seeded at density of 3×10^3 cells per well in 96-well plate and incubated at 37° C. in 5% CO2, 95% air and 100% relative humidity for 24 hours before adding compounds. Compounds were solubilized in 100% DMSO at 10 mM. Compounds were added to the plate using Tecan D300e® digital Dispenser. After drug addition, the plates were incubated for an additional 72 hours at 37° C. in 5% CO2, 95% air and 100% relative humidity. At the end of the incubation, cell viability was quantified with CellTiter-Glo® assay.

[2] = test system: non-small cell lung cancer cell line H460; assay: H460 proliferation assay in the presence of 3 uM ASP9521 (AKR1C3 specific inhibitor); format: cell-based, human; settings: H460 cells, CellTiter-Glo, 72 hours, in the presence of 3 uM ASP9521 added 4 hours prior to compounds; read-out: CTG H460: Avg IC50 (nM) [Assay Condition: ASP9521]
Method: as §1
To further confirm that compounds were activated by human AKR1C3, H460 proliferation assay were also performed in the presence of 3 uM […], an AKR1C3 specific inhibitor. ASP9521 were added to the plates 4 hours prior to the addition of compounds.

Structure (SMILES) | IC50 ([1]; Homo sapiens, NCI-H460, 72 h) [nM] | IC50 [2] [nM] | IC50 [1] [nM]
CN(C)C(=O)c1ccc(Oc2c([N+](=O)[O-])ccc3c2OCCC3OP(=O)(N2CC2)N2CC2)cc1 (single isomer, unassigned) [Example 130] | 10 to 50 | 389 | –
CN(C)C(=O)c1ccc(Oc2c([N+](=O)[O-])ccc3c2OCCC3OP(=O)(N2CC2)N2CC2)cc1 (single isomer, unassigned) [Example 131] | – | 314 | < 10
O=C1c2cc(Oc3c([N+](=O)[O-])ccc4c3OCCC4OP(=O)(N3CC3)N3CC3)ccc2CN1C1CC1 (single isomer, unassigned) [Example 138] | < 10 | 579 | –
O=C1c2cc(Oc3c([N+](=O)[O-])ccc4c3OCCC4OP(=O)(N3CC3)N3CC3)ccc2CN1C1CC1 (single isomer, unassigned) [Example 139] | – | 839 | < 10
CN(C)C(=O)c1ccc(Oc2cc3c(cc2[N+](=O)[O-])CCC3OP(=O)(N2CC2)N2CC2)cc1 (single isomer, unassigned) [Example 140] | < 10 | 436 | –
CN(C)C(=O)c1ccc(Oc2cc3c(cc2[N+](=O)[O-])CCC3OP(=O)(N2CC2)N2CC2)cc1 (single isomer, unassigned) [Example 141] | – | 366 | < 10
CNC(=O)c1ccc(Oc2cc3c(cc2[N+](=O)[O-])CCC3OP(=O)(N2CC2)N2CC2)cc1 (single isomer, unassigned) [Example 150] | < 10 | 297 | –
CNC(=O)c1ccc(Oc2cc3c(cc2[N+](=O)[O-])CCC3OP(=O)(N2CC2)N2CC2)cc1 (single isomer, unassigned) [Example 151] | – | 306 | < 10
O=[N+]([O-])c1cc2c(cc1Oc1ccc(-c3ccccc3)cc1)C(OP(=O)(N1CC1)N1CC1)CC2 (single isomer, unassigned) [Example 152] | < 10 | 1400 | –
O=[N+]([O-])c1cc2c(cc1Oc1ccc(-c3ccccc3)cc1)C(OP(=O)(N1CC1)N1CC1)CC2 (single isomer, unassigned) [Example 153] | – | 477 | < 10
O=[N+]([O-])c1cc2c(cc1Oc1cccc(-c3ccccc3)c1)C(OP(=O)(N1CC1)N1CC1)CC2 (single isomer, unassigned) [Example 168] | < 10 | 755 | –
O=[N+]([O-])c1cc2c(cc1Oc1cccc(-c3ccccc3)c1)C(OP(=O)(N1CC1)N1CC1)CC2 (single isomer, unassigned) [Example 169] | – | 766 | < 10
O=C1c2cc(Oc3cc4c(cc3[N+](=O)[O-])CCC4OP(=O)(N3CC3)N3CC3)ccc2CN1C1CC1 (single isomer, unassigned) [Example 170] | < 10 | 801 | –
O=C1c2cc(Oc3cc4c(cc3[N+](=O)[O-])CCC4OP(=O)(N3CC3)N3CC3)ccc2CN1C1CC1 (single isomer, unassigned) [Example 171] | – | 1100 | < 10
O=C(NC1CC1)c1ccc(Oc2cc3c(cc2[N+](=O)[O-])CCC3OP(=O)(N2CC2)N2CC2)cc1 (single isomer, unassigned) [Example 172] | 10 to 50 | 4900 | –
O=C(NC1CC1)c1ccc(Oc2cc3c(cc2[N+](=O)[O-])CCC3OP(=O)(N2CC2)N2CC2)cc1 (single isomer, unassigned) [Example 173] | – | 2980 | < 10
O=[N+]([O-])c1cc2c(cc1Oc1ccc(-c3ccccn3)cc1)C(OP(=O)(N1CC1)N1CC1)CC2 (single isomer, unassigned) [Example 188] | < 10 | 2070 | –

Structure (SMILES) | IC50 ([1]; Homo sapiens, NCI-H460, 72 h) [nM] | IC50 [2] [nM] | IC50 [1] [nM]
O=[N+]([O-])c1cc2c(cc1Oc1ccc(-c3ccccn3)cc1)C(OP(=O)(N1CC1)N1CC1)CC2 (single isomer, unassigned) [Example 189] | – | 1190 | < 10
CN1Cc2ccc(Oc3cc4c(cc3[N+](=O)[O-])OCCC4OP(=O)(N3CC3)N3CC3)cc2C1=O (single isomer, unassigned) [Example 201] | < 10 | 605 | –
CN1Cc2ccc(Oc3cc4c(cc3[N+](=O)[O-])OCCC4OP(=O)(N3CC3)N3CC3)cc2C1=O (single isomer, unassigned) [Example 202] | – | 1390 | < 10
O=C1c2cc(Oc3cc4c(cc3[N+](=O)[O-])OCCC4OP(=O)(N3CC3)N3CC3)ccc2CN1C1CC1 (single isomer, unassigned) [Example 203] | < 10 | 959 | –
O=C1c2cc(Oc3cc4c(cc3[N+](=O)[O-])OCCC4OP(=O)(N3CC3)N3CC3)ccc2CN1C1CC1 (single isomer, unassigned) [Example 204] | – | 1550 | 10 to 50
CC(OP(=O)(N1C[C@@H]1C)N1C[C@@H]1C)c1ccc([N+](=O)[O-])c(Oc2cccc(C(=O)N(C)C)c2)c1 (single isomer, unassigned) [Example 209] | < 10 | 517 | –
C[C@H]1CN1P(=O)(OC(c1ccc([N+](=O)[O-])c(Oc2cccc(C(=O)N(C)C)c2)c1)C(F)(F)F)N1C[C@@H]1C (single isomer, unassigned) [Example 225] | 50 to 100 | 9530 | –
CC(OP(=O)(N1CC1)N1CC1)c1cc2cc(Oc3cccc(C(=O)N(C)C)c3)c([N+](=O)[O-])cc2o1 (single isomer, unassigned) [Example 232] | 10 to 50 | 4110 | –
CC(OP(=O)(N1CC1)N1CC1)c1cc2cc(Oc3cccc(C(=O)N(C)C)c3)c([N+](=O)[O-])cc2o1 (single isomer, unassigned) [Example 233] | – | 3890 | < 10
Cc1ccnc(-c2ccc(Oc3c([N+](=O)[O-])ccc4c3CC[C@@H]4OP(=O)(N3CC3)N3CC3)cc2)n1 (single isomer, unassigned) [Example 264] | < 10 | 1370 | –
O=[N+]([O-])c1ccc2c(c1Oc1ccc(-c3ncc(F)cn3)cc1)CC[C@@H]2OP(=O)(N1CC1)N1CC1 (single isomer, unassigned) [Example 265] | < 10 | 1300 | –
O=[N+]([O-])c1ccc2c(c1Oc1ccc(-c3ncc(F)cn3)cc1)CC[C@H]2OP(=O)(N1CC1)N1CC1 (single isomer, unassigned) [Example 266] | 10 to 50 | 716 | –
Cn1ccc2c(F)cc(Oc3c([N+](=O)[O-])ccc4c3CC[C@@H]4OP(=O)(N3CC3)N3CC3)cc21 (single isomer, unassigned) [Example 377] | < 10 | 1330 | –
O=[N+]([O-])c1ccc2c(c1Oc1ccc(F)c(-n3cccn3)c1)CC[C@@H]2OP(=O)(N1CC1)N1CC1 (single isomer, unassigned) [Example 403] | < 10 | 1460 | –
C[C@@H](OP(=O)(N1CC1)N1CC1)c1cc2cc(Oc3cccc(OC(F)(F)F)c3)c([N+](=O)[O-])cc2o1 (single isomer, unassigned) [Example 531] | < 10 | 1430 | –
C[C@H](OP(=O)(N1CC1)N1CC1)c1cc2cc(Oc3cccc(OC(F)(F)F)c3)c([N+](=O)[O-])cc2o1 (single isomer, unassigned) [Example 532] | < 10 | 1230 | –
[2H]C([2H])([2H])N(C(=O)c1cccc(Oc2cc3cc([C@H](C)OP(=O)(N4CC4)N4CC4)oc3cc2[N+](=O)[O-])c1)C([2H])([2H])[2H] (single isomer, unassigned) [Example 533] | 10 to 50 | 7430 | –
